From publication PMC9780499, “Designing double-site lipidated peptide amphiphiles as potent antimicrobial biomaterials to combat multidrug-resistant bacteria” (Frontiers in Microbiology, 2022)
Values after ≈ are worked out from the molar mass of the structure shown. Peptide text beside a SMILES is read from it. * marks the point of attachment. Octanoyl = CCCCCCCC(=O)*; Hexanoyl = CCCCCC(=O)*

Tests used:
[1] = tested on: HEK293; assay: Live/dead cell staining (calcein-AM/PI); type: cell-based, human; details: peptide concentration less than 64 μM
From the text: For live/dead cell staining assay, HEK293 cell lines, calcein-AM, and propidium iodide (PI) were employed to assess the cell viability. The processes that come next are the same as in the prior report ([Lai et al., 2021]). There were two technical replicates used in the experiment.

[2] = tested on: E. coli 25922; type: cell-based, Escherichia coli; details: 25922, 20 h
From the text: (§1) Escherichia coli ATCC25922, E. coli UB1005, Pseudomonas aeruginosa ATCC27853, Salmonella typhimurium ATCC14028, S. typhimurium C7731, Staphylococcus aureus ATCC29213, Methicillin-resistant S. aureus (MRSA) ATCC43300, S. epidermidis ATCC12228, and Enterococcus faecalis ATCC29212 were stored by the institute of animal nutrition, Northeast Agricultural University (Harbin, China). Multidrug-Resistant E. coli HP73 and E. coli HP74 were clinically isolated from swine-derived Escherichia coli and stored by the institute of animal nutrition, Northeast Agricultural University (Harbin, China).
(§2) The MICs were determined using a broth microdilution method with reference to Clinical and Laboratory Standards Institute (CLSI) guidelines ([Wiegand et al., 2008]). After a two-fold serial dilution of the peptides (50 μl, dilution buffer: 0.01% acetic acid containing 0.2% BSA) prepared in a 96-well plate, a series of an equal volume of bacterial solution (50 μl) prepared in Mueller-Hinton broth (MHB) were added to the same 96-well plate, and the final bacterial inoculum size in each well of the 96-well plate was approximately 5 × 10^5 CFU/ml. As positive and negative controls, bacteria solution without peptides and blank samples without bacteria were prepared in the same 96-well plate. […] The lowest peptide concentration at which there was no increase in optical density was referred to as the MIC.

[3] = tested on: E. coli UB1005; type: cell-based, Escherichia coli; details: UB1005, 20 h
From the text: as §1, §2

[4] = tested on: IPEC-J2; assay: MTT cytotoxicity assay; type: cell-based, porcine
Method: (§3) 3-(4,5-dimethylthiozol-2-yl)-2,5-diphenyltetrazolium bromide (MTT) assay and live/dead cell staining assay were conducted to assess the peptide cytotoxicity. For the MTT assay, cell lines were seeded and passaged twice in high-glucose Dulbecco’s modified Eagle’s medium (DMEM, containing 100 μg/ml streptomycin, 100 U/ml penicillin, and 10% vol/vol fetal bovine serum) or Dulbecco’s Modified Eagle Medium/Nutrient Mixture F-12 (DMEM/F-12, containing 100 μg/ml streptomycin, 100 U/ml penicillin, and 10% vol/vol fetal bovine serum) at a 5% CO2 incubator (37°C). The cells (approximately 50,000 cells per well) were cultured in a 96-well plate at a 5% CO2 incubator for 1 day. Then various concentrations of peptide solutions (50 μl) were added to the plate and incubated for another 1 day. The cells solution without peptides and blank samples without cells and peptides were prepared in the same 96-well plate as positive and negative controls, respectively. Subsequently, MTT (0.5 mg/ml, 20 μl per well) was added and the plate was incubated for another 4 h. Removed all supernatant from the plate and added 150 μl of dimethyl sulfoxide. Finally, a microplate reader (Tecan GENios F129004, Austria) was used to record the absorbance data at OD570 nm. Melittin was employed as a control peptide. The cell viability was calculated using the previously described equation ([Lai et al., 2021]).

[5] = tested on: E. coli HP73; assay: microbe, parasite or virus in culture; type: cell-based, Escherichia coli; details: HP73, 20 h; read-out: MICs, E. coli HP73
From the text: as §1, §2

[6] = tested on: E. coli HP74; assay: microbe, parasite or virus in culture; type: cell-based, Escherichia coli; details: HP74, 20 h; read-out: MICs, E. coli HP74
From the text: as §1, §2

[7] = tested on: 9 bacterial strains; assay: Geometric mean MIC over the 9 bacterial strains; type: cell-based; details: geometric mean of the 9 strains of Table 1
Method: as §2

[8] = tested on: MRSA 43300; type: cell-based, Methicillin-resistant S. aureus; details: 43300, 20 h
From the text: as §1, §2

[9] = tested on: P. aeruginosa 27853; type: cell-based, Pseudomonas aeruginosa; details: 27853, 20 h
From the text: as §1, §2

[10] = tested on: HEK293T; assay: MTT cytotoxicity assay; type: cell-based, human
Method: as §3

[11] = tested on: S. aureus 29213; type: cell-based, Staphylococcus aureus; details: 29213, 20 h
From the text: as §1, §2

[12] = tested on: E. faecalis 29212; type: cell-based, Enterococcus faecalis; details: 29212, 20 h
From the text: as §1, §2

[13] = biological target: proteinase K (Parengyodontium album, UniProt P06873); assay: Proteolytic stability, tricine-SDS-PAGE; type: in vitro ADME; details: peptide 2.56 mM + 500 μg/ml protease (equal volumes), 16.5% tricine-SDS-PAGE
Chain of proteinase K (P06873 106-384): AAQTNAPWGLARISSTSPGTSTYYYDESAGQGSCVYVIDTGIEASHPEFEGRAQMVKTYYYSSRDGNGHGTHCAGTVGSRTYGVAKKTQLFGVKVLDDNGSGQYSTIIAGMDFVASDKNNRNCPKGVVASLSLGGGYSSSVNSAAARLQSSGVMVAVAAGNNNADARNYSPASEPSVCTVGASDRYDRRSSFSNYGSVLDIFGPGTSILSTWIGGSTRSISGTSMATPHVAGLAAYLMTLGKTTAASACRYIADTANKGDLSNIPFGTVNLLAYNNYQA
Method: 16.5% tricine−SDS − PAGE was used to evaluate the proteolytic stability of the peptides. The peptides (2.56 mM, 50 μl) were incubated with protease (500 μg/ml, 50 μl) at 37°C. After incubating for 1, 2, 4, or 8 h, the mixture (20 μl) was drawn out and placed in a bath of boiling water for 5 min. The mixture was then diluted to the suitable concentration for 16.5% tricine-SDS-PAGE analysis.

[14] = tested on: S. typhimurium 14028; type: cell-based, Salmonella typhimurium; details: 14028, 20 h
From the text: as §1, §2

[15] = tested on: S. typhimurium C7731; type: cell-based, Salmonella typhimurium; details: C7731, 20 h
From the text: as §1, §2

[16] = tested on: S. epidermidis 12228; type: cell-based; details: 12228, 20 h
From the text: as §1, §2

[17] = peptide concentration less than 64 μM

SMILES	Toxicity toward HEK293 [1]	MICs, E. coli 25922 [2] [µM]	MICs, E. coli UB1005 [3] [µM]	Toxicity toward IPEC-J2 [4, 17]	MIC [5] [µM]	MIC [6] [µM]	GM, geometric mean MICs from the 9 bacterial strains [7] [µM]	MICs, MRSA 43300 [8] [µM]	MICs, P. aeruginosa 27853 [9] [µM]	Toxicity toward HEK293T [10, 17]	MICs, S. aureus 29213 [11] [µM]	MICs, E. faecalis 29212 [12] [µM]	Stability to proteinase K (band on gel) ([13]; 37°C, 1, 2, 4, 8 h)	Digestion period beyond which the bands gradually vanished, proteinase K ([13]; 37°C) [h]	MICs, S. typhimurium 14028 [14] [µM]	MICs, S. typhimurium C7731 [15] [µM]	MICs, S. epidermidis 12228 [16] [µM]	Concentration above which significant cytotoxicity toward IPEC-J2 ([4]; 1 day incubation)	Concentration above which significant cytotoxicity toward HEK293T ([10]; 1 day incubation)
CCCCCC(=O)NCCCC[C@H](NC(=O)[C@H](CC(C)C)NC(=O)[C@H](CCCCN)NC(=O)[C@H](CCCCN)NC(=O)[C@H](CC(C)C)NC(=O)[C@H](CCCCNC(=O)CCCCC)NC(=O)[C@H](CCCCN)NC(=O)[C@H](CCCCN)NC(=O)[C@H](CC(C)C)NC(=O)[C@H](CCCCN)NC(=O)[C@H](CCCCN)NC(=O)[C@H](CC(C)C)NC(=O)[C@@H](N)Cc1c[nH]c2ccccc12)C(=O)N[C@@H](CCCCN)C(=O)N[C@@H](CCCCN)C(=O)O [WL-C6] (H-WLKKLKKK(Hexanoyl)LKKLK(Hexanoyl)KK-OH)	negligible toxicity	4	4	negligible toxicity	4 (≈ 8.54 µg/mL)	4 (≈ 8.54 µg/mL)	3.43	4	2	negligible toxicity	4	4	cleaved by proteinase K	> 1	2	4	4	–	–
CCCCCCCC(=O)NCCCC[C@H](NC(=O)[C@H](CC(C)C)NC(=O)[C@H](CCCCN)NC(=O)[C@H](CCCCN)NC(=O)[C@H](CC(C)C)NC(=O)[C@H](CCCCNC(=O)CCCCCCC)NC(=O)[C@H](CCCCN)NC(=O)[C@H](CCCCN)NC(=O)[C@H](CC(C)C)NC(=O)[C@H](CCCCN)NC(=O)[C@H](CCCCN)NC(=O)[C@H](CC(C)C)NC(=O)[C@@H](N)Cc1c[nH]c2ccccc12)C(=O)N[C@@H](CCCCN)C(=O)N[C@@H](CCCCN)C(=O)O [WL-C8] (H-WLKKLKKK(Octanoyl)LKKLK(Octanoyl)KK-OH)	–	4	2	–	4 (≈ 8.76 µg/mL)	4 (≈ 8.76 µg/mL)	3.70	4	4	–	4	4	–	–	4	4	4	greater than 32 μM	greater than 32 μM
